Measured values published in US10179355B2, “Bioremediation enhancing agents and methods of use” (JRW BIOREMEDIATION, LLC, priority 2007, dated 2019).

Test system: dechlorinating bacteria known to convert PCE to ethene
Test: Set B: Erythorbate ML with and without YM2, PCE dechlorination microcosms (kinetics, Relative Rate)
Assay type: cell-based, Dehalococcoides and Dehalobacter spp.
Text: Certain contaminated materials (or sites) may contain indigenous microbial communities that are sufficient for complete bioremediation of contaminants. For such sites, there is no need to add microbes unless the indigenous microbes are genetically deficient in achieving the desired clean-up goals. For those sites that are microbiologically limited, microorganisms may be added to the contaminated materials (or sites). In one embodiment, the inoculum may be a mixed culture of halo-respiring bacteria that have been enriched to reach an optimal cell density. These mixed cultures of halo-respiring bacteria may be typically obtained from sediment samples from rivers, streams or any waterways. More specifically, the inoculum used in the Examples was originated from a Sangamon River sediment sample (Lodge Park, Piatt County, Ill.) See, e.g., Brennan, R. A., Sanford, R. A. and Werth, C. J. (2006). “Biodegradation of Tetrachloroethene by Chitin Fermentation Products in a Continuous Flow Column System.” Journal of Environ. Engr., June 665-673. This culture had grown for several years on PCE, anaerobic basal salts medium, Wolfe's vitamin solution and various electron donors including lactate (1-2 millimolar (mM)), formate (4 mM) and chitin using the Volatile Interface Transfer Apparatus (VITA) reactor system at the University of Illinois. Brennan, R. A., and Sanford, R. A. (2002). “Continuous steady-state method using Tenax for delivering tetrachloroethene to chlororespiring bacteria.” Appl. Environ. Microbiol., 68(3), 1464-1467. […] Using 16S rRNA gene-specific primers, both Dehalococcoides and Dehalobacter spp. were detected. Quantitative real-time PCR has been used to determine that approximately 1.65×10^7 Dehalococcoides gene copies were present per ml of culture.
For purpose of this disclosure, each bottle may be started with a certain amount of PCE. At subsequent times each bottle may be sampled for the degradation daughter products of PCE, namely trichloroethene (TCE), cis-dichloroethene (DCE), vinyl chloride (VC) and ethene, etc. Trans-DCE and 1,1-DCE are also daughter products of PCE, but they may not be detectable under the conditions disclosed here.
The rate of degradation may be determined by calculating the number of pmoles of chloride ions removed from PCE and subsequently from the amounts of the daughter products generated. The calculation may be performed as follows: Chloride (μmoles)=[…]−4×PCE (μmoles)−3×TCE (pmoles)−2×DCE (μmoles)−VC (μmoles)
Next, the dechlorination rate may be determined for each bottle at each time by dividing the Chloride generated by the time (days). The data may be then normalized to the lactate control by taking the ratio of Chloride Rate (pmoles/day) and the Lactate Control Chloride Rate (pmoles/day). This ratio is called Relative Rate and is dimensionless.
As shown in the Examples, a paired t-test has been conducted to calculate the probability that the Relative Rate of one group (i.e. with Nutrient) is greater than the other group (i.e. without Nutrient). The null hypothesis is that the underlying means of the two paired groups are equal. The Probability that one group has higher Relative Rates than the other group is shown in various tables in the Examples.
The following components were used in the system for bioremediating contaminated ground water microcosms in Examples 2-8: • 160 milliliter (ml) stoppered serum bottles • 100 ml of anaerobic culture medium, groundwater containing an excess of bioavailable phosphorus and nitrogen at 0.5 mM Phosphate and 1 mM ammonium degassed with a nitrogen sparge • Nominally 1 gram of limestone • 19.54 micromoles (pmoles) Perchloroethene (PCE) • An excess of various electron donors were utilized • 3 ml of inoculum containing dechlorinating bacteria known to convert PCE to ethene.
The second set of microcosms used Erythorbate ML as the electron donor at 1020 mg/L initial concentration. […]

With `CC(O)C(=O)[O-].[Na+]` (stereo not shown) [Lactate Control, sodium lactate] the “Cl^− Rate ± s.d.” value (0 days) was 0.00 ± 0.00 µmol, the “Cl^− ± s.d.” value (0 days) was 0.00 ± 0.00 µmol and the “DCE ± s.d.” value (0 days) was 0.00 ± 0.00 µmol. For the same compound, the “Ethene ± s.d.” value (0 days) was 0.00 ± 0.00 µmol, the “PCE ± s.d.” value (0 days) was 19.54 ± 0.00 µmol and the “TCE ± s.d.” value (0 days) was 0.00 ± 0.00 µmol. The “VC ± s.d.” value (0 days) was 0.00 ± 0.00 µmol, the “Cl^− Rate ± s.d.” value (21 days) was 1.61 ± 0.14 µmol and the “Cl^− ± s.d.” value (21 days) was 33.88 ± 2.96 µmol. For the same compound, the “DCE ± s.d.” value (21 days) was 0.83 ± 0.07 µmol, the “Ethene ± s.d.” value (21 days) was 0.29 ± 0.08 µmol and the “PCE ± s.d.” value (21 days) was 7.22 ± 0.85 µmol. The “TCE ± s.d.” value (21 days) was 3.15 ± 0.11 µmol, the “VC ± s.d.” value (21 days) was 4.28 ± 0.44 µmol and the “Cl^− Rate ± s.d.” value (35 days) was 1.11 ± 0.12 µmol. For the same compound, the “Cl^− ± s.d.” value (35 days) was 39.00 ± 4.35 µmol, the “DCE ± s.d.” value (35 days) was 2.57 ± 0.34 µmol and the “Ethene ± s.d.” value (35 days) was 0.53 ± 0.12 µmol. The “PCE ± s.d.” value (35 days) was 3.58 ± 0.90 µmol, the “TCE ± s.d.” value (35 days) was 3.77 ± 0.18 µmol and the “VC ± s.d.” value (35 days) was 8.37 ± 0.37 µmol. For the same compound, the “Cl^− Rate ± s.d.” value (49 days) was 1.05 ± 0.04 µmol, the “Cl^− ± s.d.” value (49 days) was 51.67 ± 1.97 µmol and the “DCE ± s.d.” value (49 days) was 1.31 ± 0.95 µmol. For the same compound, the “Ethene ± s.d.” value (49 days) was 1.05 ± 0.22 µmol, the “PCE ± s.d.” value (49 days) was 0.04 ± 0.01 µmol and the “TCE ± s.d.” value (49 days) was 0.10 ± 0.03 µmol. The “VC ± s.d.” value (49 days) was 23.41 ± 0.34 µmol.
